One assay has as its system A431-FBP cells. Briefly: Inhibition of cell growth, A431-FBP cells. Particulars: for fold increased IC50 in presence of folic acid, A431-FBP: IC50 + 1 μM FA vs without FA; for fold increased sensitivity compared with A431, A431-FBP: A431 IC50 vs A431-FBP IC50.
The test system of another assay is A431 cells. Briefly: Inhibition of cell growth, A431 cells. The following applies: for fold increased IC50 in presence of folic acid, A431: IC50 + 1 μM FA vs without FA.
Another assay relates to KB cells. Briefly: Inhibition of cell growth, KB cells.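 As to all read-outs here: KB nasopharyngeal carcinoma cells express the α-folate receptor, and leucovorin at 20 nM was the folate source in the growth medium.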 The following applies: for fold increased IC50 in presence of folic acid, KB: IC50 + 1 μM FA vs without FA.
For assay [1], the target named is T1, thymidylate synthase (TS) from L1210 mouse leukaemia cells (Mus musculus, UniProt P07607).
T1 construct: obtained in partially purified form from L1210 mouse leukaemia cells; endogenous in cells; host or cells: L1210 mouse leukaemia cells (enzyme partially purified)
T1 sequence (P07607 whole entry): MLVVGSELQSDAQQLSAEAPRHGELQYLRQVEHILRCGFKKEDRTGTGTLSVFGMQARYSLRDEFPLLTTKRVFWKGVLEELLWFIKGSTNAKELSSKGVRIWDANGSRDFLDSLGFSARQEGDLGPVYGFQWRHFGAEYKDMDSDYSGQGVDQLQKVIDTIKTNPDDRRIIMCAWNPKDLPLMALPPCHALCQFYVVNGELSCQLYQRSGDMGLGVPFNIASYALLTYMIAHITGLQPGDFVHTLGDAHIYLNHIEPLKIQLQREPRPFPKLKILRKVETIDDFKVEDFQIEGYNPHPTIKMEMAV
Briefly: Inhibition of isolated L1210 thymidylate synthase. Type of assay: biochemical. The following applies: read-out: Inhibition of isolated L1210 TS, Kiapp.

The target in assay [2] is T2, reduced-folate carrier (RFC) (Mus musculus, UniProt P41438).
T2 construct: endogenous in cells; host or cells: L1210
T2 sequence (P41438 1-512): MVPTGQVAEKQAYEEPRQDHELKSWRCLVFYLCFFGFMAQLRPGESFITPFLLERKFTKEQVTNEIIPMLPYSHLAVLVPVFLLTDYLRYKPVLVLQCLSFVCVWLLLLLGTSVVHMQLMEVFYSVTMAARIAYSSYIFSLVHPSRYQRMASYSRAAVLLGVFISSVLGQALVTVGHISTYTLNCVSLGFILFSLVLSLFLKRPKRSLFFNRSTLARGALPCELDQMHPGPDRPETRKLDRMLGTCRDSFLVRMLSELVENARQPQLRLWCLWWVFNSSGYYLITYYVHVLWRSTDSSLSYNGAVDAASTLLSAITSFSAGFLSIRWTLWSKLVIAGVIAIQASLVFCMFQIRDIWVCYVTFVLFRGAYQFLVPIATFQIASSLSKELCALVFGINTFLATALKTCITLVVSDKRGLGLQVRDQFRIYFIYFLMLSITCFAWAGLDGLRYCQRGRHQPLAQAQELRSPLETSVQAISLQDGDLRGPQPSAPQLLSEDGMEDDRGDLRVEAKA
Briefly: Inhibition of 3H MTX uptake in L1210 cells. Type of assay: cell-based. Particulars: Inhibition of 3H MTX uptake Ki, L1210, mouse L1210 tumor cells; high Ki = low affinity for RFC.

The target in assay [3] is T3, α-FR (Mus musculus, UniProt P35846).
T3 construct: endogenous in cells; host or cells: mouse L1210-FBP cells
T3 sequence (P35846 25-232): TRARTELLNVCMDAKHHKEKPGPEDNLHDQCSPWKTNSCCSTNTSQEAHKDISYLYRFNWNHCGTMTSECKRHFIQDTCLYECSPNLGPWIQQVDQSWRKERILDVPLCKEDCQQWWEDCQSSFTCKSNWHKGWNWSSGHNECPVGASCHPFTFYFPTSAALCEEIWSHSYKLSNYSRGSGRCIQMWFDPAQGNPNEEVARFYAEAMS
Briefly: Binding to α-FR relative to folic acid, L1210-FBP cells. The following applies: L1210-FBP mouse tumor cells overexpressing α-FR; folic acid = 1.

Assay [4] has as its target T4, reduced-folate carrier (RFC) (Homo sapiens, UniProt P41440).
T4 construct: endogenous in cells; host or cells: W1L2
T4 sequence (P41440 1-591): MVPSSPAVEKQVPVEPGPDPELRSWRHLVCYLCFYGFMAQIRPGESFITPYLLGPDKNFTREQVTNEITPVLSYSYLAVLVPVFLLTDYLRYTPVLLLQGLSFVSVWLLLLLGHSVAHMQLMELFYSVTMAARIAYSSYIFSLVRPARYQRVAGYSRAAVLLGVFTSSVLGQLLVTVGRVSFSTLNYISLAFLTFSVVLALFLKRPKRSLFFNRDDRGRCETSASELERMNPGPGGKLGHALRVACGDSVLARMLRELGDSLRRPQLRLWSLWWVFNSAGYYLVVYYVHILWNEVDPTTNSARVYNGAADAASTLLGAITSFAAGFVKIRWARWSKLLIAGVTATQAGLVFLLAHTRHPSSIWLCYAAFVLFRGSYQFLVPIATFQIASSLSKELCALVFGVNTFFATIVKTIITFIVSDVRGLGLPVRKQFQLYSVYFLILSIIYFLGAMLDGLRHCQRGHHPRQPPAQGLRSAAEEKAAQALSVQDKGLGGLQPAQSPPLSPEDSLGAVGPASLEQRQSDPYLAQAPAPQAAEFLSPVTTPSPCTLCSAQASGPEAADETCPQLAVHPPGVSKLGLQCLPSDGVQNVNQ
Briefly: Inhibition of 3H MTX uptake in W1L2 cells. Type of assay: cell-based. Particulars: Inhibition of 3H MTX uptake Ki, W1L2, human lymphoblastoid W1L2 cells; high Ki = low affinity for RFC.

The target of assay [5] is T5, α-FR (Homo sapiens, UniProt P15328).
T5 construct: expressed in transfected cells; host or cells: A431 (human vulvar carcinoma)
T5 sequence (P15328 25-234): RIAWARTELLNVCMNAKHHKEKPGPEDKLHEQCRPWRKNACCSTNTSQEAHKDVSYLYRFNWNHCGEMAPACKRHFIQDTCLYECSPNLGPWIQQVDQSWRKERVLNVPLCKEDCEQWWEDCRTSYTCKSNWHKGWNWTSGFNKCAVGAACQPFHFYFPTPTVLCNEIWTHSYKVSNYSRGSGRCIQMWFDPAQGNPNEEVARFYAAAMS
Briefly: Binding to α-FR relative to folic acid, A431-FBP cells. Particulars: human A431 cells transfected with α-FR; folic acid = 1.

Setting [6] is: Homo sapiens, read-out: Inhibition of cell growth, IC50, A431-FBP.
[7] abbreviates: Homo sapiens, A-431, read-out: Inhibition of cell growth, IC50, A431.
Setting [8] is: Homo sapiens, KB, read-out: Inhibition of cell growth, IC50, KB, […] nM LV.
The mark [9] stands for this setting: read-out: Inhibition of cell growth, IC50, KB + 1 μM FA, 20 nM LV, + 1 μM folic acid.
Where [10] appears, read: read-out: Inhibition of cell growth, IC50, A431-FBP + 1 μM FA, 20 nM LV, + 1 μM folic acid.
[11] abbreviates: read-out: Inhibition of cell growth, IC50, A431 + 1 μM FA, 20 nM LV, + 1 μM folic acid.

The structures appear in SMILES notation. Several values for one entry are separate records, joined by “and”; a condition that tells them apart may be missing. Identical values can stand only once. Like-named read-outs stand apart in the source and are kept apart here.

In general, IC50 refers to the concentration at which inhibition is half-maximal. For `C#CCN(c1ccc(C(=O)N[C@@H](CCC(=O)N(C)[C@@H](CCC(=O)O)C(=O)O)C(=O)O)cc1)C1CCc2cc3nc(CO)[nH]c(=O)c3cc21` (mixture of isomers) [CB300960 (R, S), N-{N-{4-[N-((6RS)-2-hydroxymethyl-4-oxo-3,4,7,8-tetrahydro-6H-cyclopenta[g]quinazolin-6-yl)-N-(prop-2-ynyl)amino]benzoyl}-L-γ-glutamyl}-N-methyl-L-glutamic acid], the “fold increased IC50 in presence of folic acid, A431-FBP” value (shortened to “fold increased IC50 … A431-FBP”) in the assay with A431-FBP cells (20 nM LV) is given as “(180) fold”. Besides, the IC50 was 28 nM in the assay on A431-FBP cells (setting [6]) and 4500 nM in the assay on A431 cells (setting [7]). In addition, in the assay on A431 cells (20 nM LV), the “fold increased IC50 in presence of folic acid, A431” value was “(1) fold”.

For the molecule `Cc1nc2ccc(CN(C)c3ccc(C(=O)N[C@@H](CCC(=O)O)C(=O)O)s3)cc2c(=O)[nH]1` [Raltitrexed, reference compound], the 50% inhibitory concentration (IC50) with KB cells (setting [8]) amounted to 1.1 ± 0.71 nM; in the assay with KB cells (setting [9]), 1.2 ± 0.59 nM; with A431-FBP cells (setting [6]) it was 0.79 ± 0.36 nM; in the assay on A431-FBP cells (setting [10]) it was 1.3 ± 0.7 nM; in the assay on A431 cells (setting [7]) it was 3.4 ± 1.6 nM; in the assay with A431 cells (setting [11]) it was 3.6 ± 1.6 nM. Moreover, the Ki in assay [1] is 510 nM; in assay [2] it was 2600 nM and 2300 nM.

On to `C#CCN(Cc1ccc2nc(N)[nH]c(=O)c2c1)c1ccc(C(=O)N[C@@H](CCC(=O)O)C(=O)O)cc1` [CB3717, reference compound], for which the IC50 amounted to 260 ± 120 nM with A431-FBP cells (setting [6]), 450 ± 140 nM with A431-FBP cells (setting [10]), 1200 ± 630 nM in the assay with A431 cells (setting [7]) and 1400 ± 560 nM in the assay with A431 cells (setting [11]). Moreover, the Ki in assay [2] was 46000 ± 17000 nM.

As to `C#CCN(Cc1cc2c(=O)[nH]c(C)nc2cc1C)c1ccc(C(=O)N[C@@H](CCC(=O)O)C(=O)O)cc1` [CB3900, reference compound], the “fold increased IC50 in presence of folic acid, KB” value with KB cells (20 nM LV) was “(2) fold”. Besides, the IC50 in the assay on KB cells (setting [8]) was determined as 130 ± 6 nM; in the assay with KB cells (setting [9]), 310 ± 40 nM; with A431-FBP cells (setting [6]), 1400 ± 360 nM; in the assay with A431-FBP cells (setting [10]), 1500 ± 290 nM; with A431 cells (setting [7]), 2200 ± 260 nM; in the assay with A431 cells (setting [11]), 2600 ± 920 nM. Moreover, the “fold increased sensitivity compared with A431, A431-FBP” value in the assay with A431-FBP cells (20 nM LV) is given as “(2) fold”. Further, the “fold increased IC50 … A431-FBP” value in the assay on A431-FBP cells (20 nM LV) was “(1) fold”. At α-FR [3], the “Inverse relative affinity for α-FR, L1210-FBP” value was found to be 0.30 ± 0.07. The Ki in assay [1] is 23 nM; in assay [2] it was 4300 nM and 4700 nM; in assay [4] it was 1300 nM. Moreover, the “fold increased IC50 in presence of folic acid, A431” value with A431 cells (20 nM LV) is on record as “(1) fold”.

For `C#CCN(c1ccc(C(=O)N[C@@H](CCC(=O)O)C(=O)O)cc1)C1CCc2cc3nc(CO)[nH]c(=O)c3cc21` (stereo partly drawn) [CB300959 (R, S), reference compound], the “fold increased IC50 in presence of folic acid, KB” value in the assay with KB cells (20 nM LV) was “(11) fold”. The half-maximal inhibitory concentration (IC50) came out at 420 nM with KB cells (setting [8]); 500 nM in the assay with KB cells (read-out: Inhibition of cell growth, IC50, KB, […] nM LV); 8800 nM in the assay on A431-FBP cells (setting [6]); 18000 nM in the assay with A431-FBP cells (setting [10]); 4200 nM in the assay with A431 cells (setting [7]); 5800 nM in the assay on A431 cells (setting [11]). Besides, the “fold increased sensitivity compared with A431, A431-FBP” value with A431-FBP cells (20 nM LV) is listed as “(0.5) fold”. Besides, in the assay with A431-FBP cells (20 nM LV), the “fold increased IC50 … A431-FBP” value is on record as “(2) fold”. Moreover, at α-FR [3], the “Inverse relative affinity for α-FR, L1210-FBP” value is reported as 0.71 ± 0.012. In assay [1], the Ki was 12 nM. In addition, the “Inverse relative affinity for α-FR, A431-FBP” value at α-FR [5] is listed as 0.57 ± 0.032. Further, the “fold increased IC50 in presence of folic acid, A431” value with A431 cells (20 nM LV) is on record as “(1) fold”.

With `C#CCN(Cc1ccc2nc(C)[nH]c(=O)c2c1)c1ccc(C(=O)N[C@@H](CCC(=O)O)C(=O)O)cc1` [ICI 198583, reference compound], the IC50 with KB cells (setting [8]) turned out to be 2 ± 0.4 nM; in the assay on KB cells (setting [9]) it was 20 ± 2 nM; in the assay on A431-FBP cells (setting [6]), 12 ± 5 nM; with A431-FBP cells (setting [10]) it was 20 ± 4.6 nM; with A431 cells (setting [7]), 24 ± 4 nM; in the assay on A431 cells (setting [11]) it was 26 ± 3.8 nM. Besides, the Ki in assay [2] is 2600 ± 60 nM; in assay [4], 1200 nM and 1000 nM.

For the origin of these results see patent publication US7528141B2, “Use of cyclopenta[g]quinazoline derivatives for treating cancer” (BTG International Limited, priority 2001, dated 2009).
